Results as given in patent publication US20060135625A1, “Method of administering split doses of a vascular targeting agent” (priority 2002, published 2006).

Key:
[1] = system: murine adenocarcinoma NT (CaNT) tumor; assay: in vitro clonogenic (colony-forming) assay of tumor cells isolated from treated CaNT tumor-bearing animals; type: in vivo, mice
Description: (§1) 1) Transplanted tumor model. A murine adenocarcinoma NT (“CaNT”) tumor was transplanted from a syngeneic donor and implanted subcutaneously onto the rear dorsum of 10-16 week old female CBA/Gy f TO mice, by injecting 0.05 ml of a crude cell suspension prepared by mechanical dissociation of the excised. Tumors were selected for treatment with the VTA CA4DP when the geometric mean diameter (“GMD”) reached 5-6.5 mm (150-300 mg), approximately 3-4 weeks after implantation.
(§2) In each of the following Examples 1-4, CA4DP (OXiGENE Inc, Watertown, Mass., USA) was dissolved in 0.9% saline at appropriate concentrations to allow each dose to be injected i.p. in 0.1 ml per 10 g body weight. 0.9% saline was used for control treatments.
To compare the anti-tumor effect of single and divided VTA dose scheduling, the survival of tumor cells isolated from a treated CaNT tumor-bearing animals was assessed by an in vitro clonogenic (colony-forming) assay, as described previously (Chaplin et al., Anticancer Research, 1999, 19: 189-196). Tumors were excised 18-24 h after CA4P injection. Two tumors were combined for each data point, weighed, minced with scissors and then disaggregated for 1 hour at 37° C. in an enzyme cocktail of 1 mg/ml pronase, 0.5 mg/ml DNase and 0.5 mg/ml collagenase. Following digestion, samples were passed through a 25G needle and a 35 μm filter to obtain a single cell suspension. Haemocytometer counts of trypan-blue excluding cells were made and known numbers of viable cells added to a feeder layer of heavily irradiated V79-379A Chinese hamster cells. After 7-10 days incubation, colonies were fixed, stained with methylene blue and counted. The data were calculated as surviving fraction per gram of tumor, which is a product of relative surviving fraction and relative cell yield per gram of tumor. Each experimental group was repeated at least 3 times, so that at least 6 tumors contribute to each data point.

[2] = system: murine adenocarcinoma NT (CaNT) tumor; assay: tumor growth delay in CaNT tumor-bearing mice; type: in vivo
Description: as §1, §2
(§3) The anti-tumor effect of split dosing therapy was also assessed by an analysis of tumor growth delay in both CaNT and T138 tumor-bearing mice. For experiments involving the CaNT, dose groups comprised 5 to 6 animals, whereas for the T138, 10 to 15 animals were used. Following initial drug treatment, tumor growth was determined by measuring the diameter of each tumor in 3 orthogonal orientations two or three days each week.
The effect of repeated split VTA dosing therapy was also assessed by an analysis of tumor growth delay in both CaNT tumor-bearing mice. […] Repeated administration of total daily dose (50 mg/kg) 5 days a week for 2 weeks, produced a significant delay in tumor growth of approximately 2 days. Tumor growth delay was further improved by repeat administration of split dosing (2 doses of 25 mg/kg per day separated by a 6 hour interval), 5 days a week for 2 weeks (growth delay of approximately 5 days).

[3] = system: spontaneous T138 mammary tumors; assay: tumor growth delay in T138 tumor-bearing mice; type: in vivo
Description: (§4) 2) Spontaneous T138 tumor model. The T138 tumor-bearing mice (“T138”) spontaneously developed mammary tumors between 5 and 18 months of age due to genetic predisposition.
as §2, §3

CaNT tumor vasculature = assay: functional vascular volume (Hoechst 33342) in CaNT tumors; type: in vivo, mice; conditions: for reduction in perfused vascular volume: CaNT, 24 hours post-treatment
Description: as §1, §2
(§5) The effect of VTA dose splitting on the tumor vascular response was also investigated in both CaNT and T138 tumor types, by measuring the functional vascular volume at 24 hours following treatment with single or split doses of CA4DP. Functional vascular volume is defined as the volume of tumor tissue perfused by tumor blood vessels, and is measured using the fluorescent DNA-binding dye Hoechst 33342 (Sigma-Aldrich Company Ltd., Dorset, UK) (Smith et al, British Journal of Cancer, 1988, 57: 247-253). The dye was dissolved in 0.9% saline at 6.25 mg/ml and injected i.v. at a dose of 10 mg/kg at 24 hours post-treatment. Tumors were excised and frozen 1 minute later. Sections were cut at three levels and observed under UV illumination. Functional vessels were identified by the fluorescent outline of perivascular tissue and vascular volumes were determined using a random point scoring system based on that described by Chalkley (Chalkley, J. Natl Cancer Inst., 1943, 4: 47-53). At least 100 fields were scored at each of the three tumor levels and the results for treated tumors were expressed as a percentage of control values.

T138 tumor vasculature = assay: functional vascular volume (Hoechst 33342) in T138 tumors; type: in vivo, mice; conditions: 24 hours post-treatment
Description: as §4, §2
as §5, with “The dye was dissolved in 0.9% saline at 6.25 mg/ml and injected i.v. at a dose of 10 mg/kg at 24 hours post-treatment. Tumors were excised and frozen 1 minute later. Sections were cut at three levels and observed under UV illumination.” left out

[4] = system: microtubule assembly in tumor endothelium; conditions: cited from earlier work
tubulin = conditions: U.S. Pat. No. 4,996,237; cited from earlier work
[5] = human plasma; cited from earlier work

| Structure (SMILES) | cell killing (surviving fraction of tumor cells) ([1]; two equal doses of 100 mg/kg i.p. separated by 1-6 hours, compared with a single 200 mg/kg dose, tumors excised 18-24 h after injection) | cell killing (surviving fraction of tumor cells) ([1]; two equal doses of 100 mg/kg, time interval between doses 2 to 4 hours (p<0.05)) | cell killing (surviving fraction of tumor cells) ([1]; unequal doses separated by 4 hours, compared with equal doses) | tumor growth delay ([2]; CaNT mice, single 200 mg/kg dose i.p.) | tumor growth delay ([2]; CaNT mice, two equal doses of 100 mg/kg separated by 3 hours) | tumor growth delay ([2]; CaNT, repeated split dosing, 2 doses of 25 mg/kg per day separated by 6 hours, 5 days a week for 2 weeks) | tumor growth delay ([2]; CaNT, repeated total daily dose 50 mg/kg, 5 days a week for 2 weeks) | effect on tumor growth relative to control ([2]; CaNT, single dose 50 mg/kg) | tumor growth delay ([3]; single dose of 500 mg/kg) | tumor growth delay ([3]; two equal doses of 250 mg/kg separated by 3 hours) | reduction in perfused vascular volume (CaNT tumor vasculature; single 50 mg/kg dose) [%] | reduction in perfused vascular volume (CaNT tumor vasculature; two 25 mg/kg doses separated by 3 hours) [%] | reducing the fraction of perfused vascular volume (CaNT tumor vasculature; two equal split doses compared with a single dose, observed in both CaNT and T138 tumor models) | reduction of perfused vascular volume (T138 tumor vasculature; T138, single dose 200 mg/kg) | amount of perfused vascular tissue, of the control value (T138 tumor vasculature; T138, two split doses of 100 mg/kg) [%] | inhibition of microtubule assembly [4] | tubulin binding activity (tubulin) | solubility [5] |
| --- | --- | --- | --- | --- | --- | --- | --- | --- | --- | --- | --- | --- | --- | --- | --- | --- | --- | --- |
| COc1ccc(/C=C\c2cc(OC)c(OC)c(OC)c2)cc1OP(=O)([O-])[O-].[Na+].[Na+] [CA4DP, Combretastatin A-4 Disodium Phosphate Prodrug] | significantly more cell killing | most pronounced | less effective than equal doses of treatment | did not delay growth relative to control | approximately 3 days | approximately 5 days | approximately 2 days | only minimal effects on tumor growth | no effect on tumor growth | approximately 4 days | 40 | 80 | significantly more effective than a single dose | completely ineffective | 50 | potent inhibitor of microtubule assembly | – | – |
| COc1ccc(/C=C\c2cc(OC)c(OC)c(OC)c2)cc1O [CA-4, Combretastatin A-4] | – | – | – | – | – | – | – | – | – | – | – | – | – | – | – | – | found to have tubulin binding activity | insolubility |
